Laboratory results from a melting point compilation (Tetko et al.).

Row | melting point | Structure (SMILES)
1 | 114 to 116 °C | Nc1ccn(-c2ccc(Cl)cc2Cl)n1
2 | 66 to 68 °C | O=C(O)CNC(=O)c1ccccc1OC(F)F
3 | 122 to 124 °C | CNC(=O)c1cccc(N)c1
4 | 128 to 130 °C | Nc1cccc(C(=O)N2CCC(O)CC2)c1
5 | 94 to 96 °C | CNS(=O)(=O)c1ccc(I)cc1
6 | 116 to 118 °C | Cc1nn(CCC(=O)O)c(C)c1[N+](=O)[O-]
7 | 159 to 161 °C | O=C(O)c1c[nH]c2cccc(Br)c12
8 | 73 to 75 °C | O=C(Nc1ccccc1[N+](=O)[O-])c1ccc2ccccc2n1
9 | 99 to 101 °C | CC(C)(C)OC(=O)c1ccc(N)cc1
10 | 128 to 130 °C | Cc1ccc(C)c(-n2ccnc2SCC(=O)O)c1
11 | 126 to 128 °C | CS(=O)(=O)c1ccc(F)c(NC(=O)CCl)c1
12 | 133 to 135 °C | CCc1ccc(S(=O)(=O)Cl)cc1C(=O)O
13 | 79 to 81 °C | Nc1ccccc1CN1CCC(CO)CC1
14 | 147 to 149 °C | CC(C)NS(=O)(=O)c1ccc(Cl)c(C(=O)O)c1
15 | 109 to 111 °C | CNC(=O)c1c(C)cccc1N
16 | 294 to 296 °C | Nc1nc(-c2ccc([N+](=O)[O-])cc2)no1
17 | 119 to 121 °C | Nc1ccccc1C(O)C(F)(F)F (centres undefined)
18 | 172 to 174 °C | N#Cc1cnc2ccccc2c1OCCO
19 | 209 to 211 °C | ON=Cc1c(Cl)nc2ccccn12
20 | 187 to 189 °C | Cc1c(-c2ccccc2)sc(N)c1C(=O)N1CCOCC1
21 | 227 to 229 °C | Nc1nc(-c2ccc(C3CCCCC3)cc2)cs1
22 | 98 to 100 °C | CNCCCc1cc(-c2ccccc2)n[nH]1
23 | 82 to 84 °C | NC(=S)CCc1ccccc1

Row | melting point | Structure (SMILES)
24 | 108 to 110 °C | O=C(NCc1ccc2c(c1)OCO2)n1ccnc1
25 | 119 to 121 °C | C1CCC(c2nnn[nH]2)C1
26 | 212 to 214 °C | Cn1ncc2c(=O)n(CCC(=O)O)cnc21
27 | 224 to 226 °C | Cc1nnc(S)n1-c1ccccc1
28 | 67 to 70 °C | C=CCOc1ccc(C(=O)c2ccccc2)c(O)c1
29 | 130 to 132 °C | Nc1cc(-c2cccc(Cl)c2)n[nH]1
30 | 240 to 242 °C | Cn1ncnc1-c1ccc(C(=O)O)cc1
31 | 84 to 86 °C | Cc1cc(Br)c(O)c([N+](=O)[O-])c1
32 | 239 to 241 °C | NC(=O)c1cn(CC(=O)O)c2ccccc12
33 | 73 to 75 °C | O=[N+]([O-])c1ccc(OCC(F)(F)F)cc1
34 | 126 to 128 °C | COc1ccc(CNS(=O)(=O)CC#N)cc1OC
35 | 189 to 191 °C | Cc1csc(NC(=O)C2CCNCC2)n1
36 | 241 to 243 °C | O=c1ccc2ccc(Cl)c(Cl)c2[nH]1
37 | 114 to 116 °C | Nc1ccccc1N1CCc2ccccc2C1
38 | 177 to 179 °C | O=C(Nc1cccc(Cl)c1)c1ccc(Cl)nc1
39 | 66 to 68 °C | COc1cc(C=O)ccc1OCC(F)(F)F
40 | 32 to 34 °C | COc1ccc(Br)nc1C(F)(F)F
41 | 250 to 252 °C | O=C1NC(=O)C2(CCC(c3ccccc3)CC2)N1 (centres undefined)
42 | 240 to 242 °C | O=C(O)c1ccc(NS(=O)(=O)c2ccc(F)c(Cl)c2)cc1
43 | 189 to 191 °C | Nc1ccc2[nH]c(-c3ccccn3)nc2c1
44 | 145 to 147 °C | Cn1ccnc1C(=O)c1ccc(Cl)c([N+](=O)[O-])c1
45 | 141 to 143 °C | NC(=O)C=C1CCCC1
46 | 149 to 151 °C | CC(C)c1[nH]nc(C(=O)O)c1[N+](=O)[O-]

Row | melting point | Structure (SMILES)
47 | 38 to 42 °C | CCCCCCOc1ccc(C=O)cc1OC
48 | 230 to 232 °C | Cc1c[nH]c(=O)n1-c1ccc(C#N)cc1
49 | 219 to 221 °C | Nc1nncc(-c2cccc(Cl)c2)n1
50 | 48 to 50 °C | CCOC(=O)c1cc(Br)cc(F)c1N
51 | 268 to 270 °C | CCc1ccc(S(=O)(=O)O)cc1N
52 | 118 to 120 °C | O=Cc1cnc(Cl)nc1
53 | 139 to 141 °C | Nc1cccc(NC(=O)C2CCCCC2)c1
54 | 194 to 196 °C | O=C(O)CSc1nnc(C2CC2)n1Cc1ccccc1
55 | 73 to 75 °C | Cc1ccc(C)c(SCC(=O)O)c1
56 | 107 to 109 °C | O=C(O)Cc1cnn(-c2ccccc2)c1
57 | 139 to 141 °C | Fc1cccc2ncnc(Cl)c12
58 | 59 to 61 °C | NS(=O)(=O)C(F)F
59 | 135 to 137 °C | Nc1ccc(Cl)c(-n2nnnc2C2CC2)c1
60 | 181 to 183 °C | NNC(=O)C(=O)NC1CC1
61 | 140 to 142 °C | CC(C)(C)OC(=O)N1C2CCC1CC(O)C2 (centres undefined)
62 | 145 to 147 °C | O=Cc1ccc(OCc2occc2C(=O)O)cc1
63 | 156 to 158 °C | CC(C)OC(=S)Nc1ccc(C#N)c(Cl)c1
64 | 163 to 165 °C | O=C(O)C(=O)Cc1cccs1
65 | 68 to 70 °C | O=S(=O)(Cl)c1cc(Br)ccc1F
66 | 136 to 138 °C | O=C(Nc1ccccc1O)C1CC1
67 | 258 to 260 °C | O=C(CCl)Nc1ccc(N2CCCC2=O)cc1
68 | 44 to 46 °C | CC1CC(C(=O)O)CCO1 (centres undefined)
69 | 211 to 213 °C | Cc1nc(S)c2ccccc2n1

Row | melting point | Structure (SMILES)
70 | 142 to 144 °C | N#Cc1ccc(CNC(=O)CCl)cc1
71 | 93 to 95 °C | COc1ccc2c(c1)OCC(C#N)=C2
72 | 73 to 75 °C | O=C(O)C1CCN(C(=O)COc2ccccc2)CC1
73 | 140 to 142 °C | CNC(=O)c1cccc(C#N)c1
74 | 271 to 273 °C | NC(=O)c1ccc(NCC(=O)O)cc1
75 | 182 to 184 °C | NC(=O)Nc1ccccc1Oc1ccccc1
76 | 172 to 174 °C | Cc1nn(C(C)(C)C)c2nc(C3CC3)cc(C(=O)O)c12
77 | 105 to 107 °C | CC1(C(=O)O)CCc2ccccc2C1 (centres undefined)
78 | 144 to 146 °C | O=C(O)c1cccc(-c2ccoc2)c1
79 | 148 to 150 °C | CC(=O)c1ccc(-c2ccc(Br)s2)cc1
80 | 158 to 160 °C | COc1ccc(NC(=O)c2c(N)sc3c2CCCC3)cc1
81 | 76 to 78 °C | COCCN(CC(=O)O)C(=O)OC(C)(C)C
82 | 170 to 172 °C | NCCNS(=O)(=O)c1cc(Br)ccc1Br
83 | 111 to 113 °C | CCN1C(=C2C=NN(C)C2=N)Nc2ccccc21
84 | 92 to 94 °C | COc1ccc(C(O)CCC(=O)O)cc1 (centres undefined)
85 | 189 to 191 °C | O=C(O)CCC(=O)c1ccc2c(c1)-c1ccccc1C2
86 | 275 to 277 °C | Cc1nc2c(C#N)cnn2c(O)c1CC(=O)O
87 | 199 to 201 °C | Cc1cccc2c(=O)n(CCC(=O)O)cnc12
88 | 229 to 231 °C | O=S(=O)(Nc1nccs1)c1ccc(Cl)nc1
89 | 171 to 173 °C | COc1cc(C(=O)O)ccc1OC(F)F
90 | 171 to 173 °C | Cc1cc(C(=O)O)sc1Br
91 | 102 to 104 °C | Cc1ccccc1Cc1cnc(N)s1
92 | 80 to 82 °C | O=C(O)CC1CCc2ccccc2C1 (centres undefined)

Row | melting point | Structure (SMILES)
93 | 337 to 339 °C | CC1NC(=O)c2ccccc2NC1=O (centres undefined)
94 | 163 to 165 °C | CCc1c[nH]c(S)n1
95 | 222 to 224 °C | Sc1nnc(-c2ccccc2)c(-c2ccccc2)n1
96 | 137 to 139 °C | CCCCN(CC)c1ccc(C(=O)O)cc1
97 | 119 to 121 °C | Cc1nc(-c2ccc(Br)cc2)sc1C(C)O (centres undefined)
98 | 82 to 84 °C | Clc1nnc(-c2ccccc2)s1
99 | 35 to 37 °C | N#Cc1ccc(Br)cc1C(F)(F)F
100 | 62 to 64 °C | COC(=O)c1ccc(F)cc1N
101 | < 17 °C | CCn1c(S)nnc1C1CC1
102 | 89 to 91 °C | N#Cc1c([N+](=O)[O-])cccc1S(=O)(=O)Cl
103 | 102 to 104 °C | O=C(NCCc1ccc(F)cc1)C1Cc2ccccc2CN1 (centres undefined)
104 | 97 to 99 °C | OCc1cc(Cl)cc2c1OCC2
105 | 159 to 161 °C | Nc1ccc(Cl)c(C(=O)NC2CCCCC2)c1
106 | 143 to 145 °C | CC1CCC(N2CC(C(=O)O)CC2=O)CC1 (centres undefined)
107 | 119 to 120 °C | O=c1cc(CCl)c2c(ccc3ccccc32)o1
108 | 164 to 166 °C | CNS(=O)(=O)c1ccc(C(=O)O)o1
109 | 62 to 64 °C | COC(=O)c1oc(Br)cc1C
110 | 108 to 110 °C | CC(=O)c1ccc(Cl)c(Cl)c1O
111 | 155 to 157 °C | NNc1ccnc2ccccc12
112 | 175 to 177 °C | Cc1nc(C(=O)O)nn1-c1ccccc1C(C)C
113 | 71 to 73 °C | COc1ccc(NS(=O)(=O)c2cc(C(=O)O)ccc2C)cc1
114 | 103 to 105 °C | COc1ccc2nc(Cl)ccc2c1
115 | 123 to 125 °C | O=C1CCC(O)(C(F)(F)F)CC1

Row | melting point | Structure (SMILES)
116 | 199 to 201 °C | COc1cc(S(=O)(=O)Nc2ccc3c[nH]nc3c2)ccc1Br
117 | 229 to 231 °C | c1ccc(-c2cn[nH]c2)cc1
118 | 98 to 102 °C | CSc1ccc(C(=O)CCl)cc1NC(C)=O
119 | 210 to 212 °C | O=C(O)C1=Nc2cccc3cccc(c23)N1
120 | 60 to 62 °C | O=C(OCc1ccccc1)N1CCCC1CS(=O)(=O)Cl (centres undefined)
121 | 159 to 161 °C | CCCCc1ccc(NS(=O)(=O)c2ccc(N)cc2)cc1
122 | 65 to 68 °C | COC(=O)c1cccc(OC)c1O
123 | 57 to 59 °C | Cc1ccc(NS(=O)(=O)c2cc(N)ccc2Cl)c(C)c1
124 | 104 to 106 °C | O=C1COc2ccc(F)cc21
125 | 185 to 187 °C | Fc1ccc(Nc2nnc(S)s2)cc1
126 | 124 to 126 °C | O=C(O)[C@@H]1C[C@H]1c1cccnc1 (relative stereo)
127 | 149 to 151 °C | Cc1ccc(C(=O)O)n1C
128 | 115 to 117 °C | O=[N+]([O-])c1ccc(O)cc1Cl
129 | 187 to 189 °C | CC(C)C(=O)Nc1nc(CC(=O)O)cs1
130 | 103 to 105 °C | CC(=O)Nc1cccc(C(C)O)c1 (centres undefined)
131 | 89 to 92 °C | Fc1ccc(C(c2ccc(F)cc2)N2CCNCC2)cc1
132 | 132 to 134 °C | CC1CNc2cccnc2O1 (centres undefined)
133 | 161 to 163 °C | O=C(O)C1=NN(c2ccc(Cl)cc2)C(=O)CC1
134 | 313 to 315 °C | O=C(O)c1ccc(N2CCNC2=O)cc1
135 | 173 to 175 °C | NS(=O)(=O)CCCN1C(=O)c2ccccc2C1=O
136 | 65 to 67 °C | CC(C)(C)c1ccc(SCC(=O)O)cc1
137 | 201 to 203 °C | NS(=O)(=O)c1ccc(C(=O)O)cc1Br
138 | 178 to 180 °C | CC(C)Cc1ccc(C2(C)NC(=O)NC2=O)cc1 (centres undefined)

Row | Structure (SMILES) | melting point
139 | N#Cc1nnc[nH]1 | 188 to 190 °C
140 | CCc1nnn[nH]1 | 93 to 95 °C
141 | COc1ccc(Cn2cc(C(=O)O)cn2)cc1 | 132 to 134 °C
142 | CC(=O)NS(=O)(=O)Cl | 92 to 94 °C
143 | Cc1ccc2sc(C3CCNCC3)nc2c1 | 111 to 113 °C
144 | CCC(C)c1ccc(-n2c(S)nc3cc(Cl)ccc3c2=O)cc1 (centres undefined) | 242 to 244 °C
